# What was measured:
# [1] = test system: GTPase KRas (Homo sapiens), P01116 [G12C]; assay: Inhibition of biotinylated Avi-tagged GDP-bound KRAS G12C mutant (1 to 185 residues) (unknown origin) assessed as inhibition of KRAS G12C mutant/SOS/GST-tagged c-Raf complex formation at 3 uM incubated for 1 hr and measured by fluorescence based assay relative to control
# GTPase KRas = GTPase KRas (Homo sapiens, UniProt P01116, G12C); assay: Inhibition of biotinylated Avi-tagged GDP-bound KRAS G12C mutant (1 to 185 residues) (unknown origin) assessed as inhibition of KRAS G12C mutant/SOS/GST-tagged c-Raf complex formation incubated for 1 hr and measured by fluorescence based assay
# [2] = Downregulation of pERK levels in human A-375 cells measured after 2 hrs by EISA; format: functional, cell-based; conditions: A-375, 2 h
# NCI-H1373 [3] = assay: Growth inhibition of human NCI-H1373 cells assessed as cell viability after 6 days by CellTiter-Glo assay; format: functional, cell-based; conditions: NCI-H1373, 144 h
# [4] = Downregulation of pERK levels in human NCI-H1373 cells measured after 2 hrs by EISA; format: functional, cell-based; conditions: NCI-H1373, 2 h
# A-375 = assay: Growth inhibition of human A-375 cells assessed as cell viability after 6 days by CellTiter-Glo assay; format: functional, cell-based; conditions: A-375, 144 h
# [5] = Intrinsic clearance in mouse liver microsomes at 0.1 to 0.2 umol/L measured after 30 mins in presence of NADPH by LC-MS/MS analysis; format: ADME, Microsome; conditions: dose 0.1-0.2 µmol/L, read-out: CLH
# [6] = Intrinsic clearance in human liver microsomes at 0.1 to 0.2 umol/L measured after 30 mins in presence of NADPH by LC-MS/MS analysis; format: ADME, Microsome; conditions: dose 0.1-0.2 µmol/L, read-out: CLH
# [7] = Aqueous solubility of the compound in pH 6.8 JP2 fluid measured after 20 hrs by disintegration test; format: physicochemical
# [8] = Drug uptake in tumor of nude mouse xenografted with human NCI-H1373 cells at 30 mg/kg, sc administered as single dose and measured at 6 hr by LC/MS-MS analysis; format: ADME, organism-based, Neoplasm; conditions: read-out: Drug uptake
# [9] = Plasma concentration in nude mouse xenografted with human NCI-H1373 cells at 30 mg/kg, sc administered as single dose and measured at 6 hr by LC/MS-MS analysis; format: ADME, organism-based
# [10] = Plasma concentration in nude mouse xenografted with human NCI-H1373 cells at 100 mg/kg, po administered as single dose and measured at 6 hr by LC/MS-MS analysis; format: ADME, organism-based
# [11] = Drug uptake in tumor of nude mouse xenografted with human NCI-H1373 cells at 100 mg/kg, po administered as single dose and measured at 6 hr by LC/MS-MS analysis; format: ADME, organism-based, Neoplasm; conditions: read-out: Drug uptake
# [12] = Plasma concentration in nude mouse xenografted with human NCI-H1373 cells at 30 mg/kg, sc administered as single dose and measured at 1 hr by LC/MS-MS analysis; format: ADME, organism-based
# NCI-H1373 [13] = assay: Antitumor activity against human NCI-H1373 cells xenografted in nude mouse assessed as tumor growth inhibition at 10 mg/kg, sc administered as single dose; format: functional; conditions: read-out: TGI
# NCI-H1373 [14] = assay: Antitumor activity against human NCI-H1373 cells xenografted in nude mouse assessed as tumor growth inhibition at 30 mg/kg, sc administered as single dose; format: functional; conditions: read-out: TGI
# [15] = Plasma concentration in nude mouse xenografted with human NCI-H1373 cells at 100 mg/kg, po administered as single dose and measured at 1 hr by LC/MS-MS analysis; format: ADME, organism-based
# NCI-H1373 [16] = assay: Antitumor activity against human NCI-H1373 cells xenografted in nude mouse assessed as inhibition of p-ERK levels at 33 mg/kg, sc administered as single dose and measured after 6 hrs; format: functional
# [17] = Toxicity in nude mouse xenografted with human NCI-H1373 cells assessed as effect on body weight at 3 to 30 mg/kg, sc; format: organism-based; conditions: in vivo, dose 3-30 mg/kg
# NCI-H1373 [18] = assay: Antitumor activity against human NCI-H1373 cells xenografted in nude mouse assessed as tumor growth inhibition at 3 mg/kg, sc administered as single dose; format: functional; conditions: read-out: TGI
structure (smiles),measurement,setting,value
C=CC(=O)N1CC2(C1)CN(c1nc(NC3CCN(C)CC3)nc3c(F)c(-c4c(C)ccc5[nH]ncc45)c(Cl)cc13)C2,inhibition,[1],60%
same,IC50,GTPase KRas,3 µM
C=CC(=O)N1CC2(CCN(c3nc(OC4(CN(C)C)CCC4)nc4c(F)c(-c5c(C)ccc6[nH]ncc56)c(Cl)cc34)CC2)C1,IC50,GTPase KRas,0.77 µM
C=CC(=O)N1CC2(CCN(c3nc(OCCCN4CCOCC4)nc4c(F)c(-c5c(C)ccc6[nH]ncc56)c(Cl)cc34)CC2)C1,IC50,GTPase KRas,0.65 µM
C=CC(=O)N1CCN(c2nc(NC3CCN(C)CC3)nc3c(F)c(-c4c(C)ccc5[nH]ncc45)c(Cl)cc23)CC1,IC50,[2],> 10 µM
same,IC50,GTPase KRas,0.47 µM
same,IC50,NCI-H1373 [3],0.65 µM
same,IC50,[4],0.43 µM
same,IC50,A-375,1.1 µM
C=CC(=O)N1CCC2(C1)CN(c1nc(NC3CCN(C)CC3)nc3c(F)c(-c4c(C)ccc5[nH]ncc45)c(Cl)cc13)C2,IC50,GTPase KRas,18 µM
C=CC(=O)N1CC2(CCN(c3nc(OCC4CCN(C)CC4)nc4c(F)c(-c5c(C)ccc6[nH]ncc56)c(Cl)cc34)CC2)C1,IC50,GTPase KRas,0.13 µM
C=CC(=O)N1CCC2(CC1)CN(c1nc(NC3CCN(C)CC3)nc3c(F)c(-c4c(C)ccc5[nH]ncc45)c(Cl)cc13)C2,IC50,GTPase KRas,> 30 µM
C=CC(=O)N1CC2(CCN(c3nc(SC4CCN(CC)CC4)nc4c(F)c(-c5c(C)ccc6[nH]ncc56)c(Cl)cc34)CC2)C1,IC50,GTPase KRas,0.94 µM
C=CC(=O)N1CC2(CCN(c3nc(OCCN(C)C)nc4c(F)c(-c5c(C)ccc6[nH]ncc56)c(Cl)cc34)CC2)C1,IC50,GTPase KRas,0.34 µM
C=CC(=O)N1CC2(CCN(c3nc(OC4CCOCC4)nc4c(F)c(-c5c(C)ccc6[nH]ncc56)c(Cl)cc34)CC2)C1,IC50,GTPase KRas,2.1 µM
C=CC(=O)N1CC2(CCN(c3nc(OCCCN(C)C)nc4c(F)c(-c5c(C)ccc6[nH]ncc56)c(Cl)cc34)CC2)C1,IC50,GTPase KRas,0.26 µM
C=CC(=O)N1CC2(CCN(c3nc(OCCCN4CCCCC4)nc4c(F)c(-c5c(C)ccc6[nH]ncc56)c(Cl)cc34)CC2)C1,IC50,GTPase KRas,0.37 µM
C=CC(=O)N1CC2(CCN(c3nc(NC4CCN(C)CC4)nc4c(F)c(-c5c(C)ccc6[nH]ncc56)c(Cl)cc34)C2)C1,IC50,[2],> 10 µM
same,IC50,GTPase KRas,0.16 µM
same,IC50,NCI-H1373 [3],0.95 µM
same,IC50,[4],0.55 µM
same,IC50,A-375,4 µM
C=CC(=O)N1CC2(CCN(c3nc(OC4CCN(C)CC4)nc4c(F)c(-c5c(C)ccc6[nH]ncc56)c(Cl)cc34)CC2)C1,CLint scaled,[5],115 mL/min/kg
same,CLint scaled,[6],35 mL/min/kg
same,IC50,GTPase KRas,0.07 µM
same,IC50,NCI-H1373 [3],0.1 µM
same,solubility at 20 h,[7],> 100 µM
same,IC50,[4],0.096 µM
same,IC50,A-375,2.9 µM
C=CC(=O)N1CC2(CCN(c3nc(N(C)C4CCN(CC)CC4)nc4c(F)c(-c5c(C)ccc6[nH]ncc56)c(Cl)cc34)CC2)C1,IC50,GTPase KRas,3.2 µM
C=CC(=O)N1CC2(CCN(c3nc(OC4CCN(CC)CC4)nc4c(F)c(-c5c(C)ccc6[nH]ncc56)c(Cl)cc34)CC2)C1,concentration at 6 h,[8],740 nM
same,concentration at 6 h,[9],720 nM
same,concentration at 6 h,[10],130 nM
same,concentration at 6 h,[11],70 nM
same,concentration at 1 h,[12],3800 nM
same,CLint scaled,[5],115 mL/min/kg
same,inhibition in vivo at 10 mg/kg,NCI-H1373 [13],50%
same,inhibition in vivo at 30 mg/kg,NCI-H1373 [14],92%
same,concentration at 1 h,[15],670 nM
same,inhibition in vivo at 33 mg/kg,NCI-H1373 [16],63%
same,CLint scaled,[6],37 mL/min/kg
same,Activity,[17],Non-Toxic
same,IC50,GTPase KRas,0.077 µM
same,IC50,NCI-H1373 [3],0.12 µM
same,solubility at 20 h,[7],> 100 µM
same,IC50,[4],0.14 µM
same,inhibition in vivo at 3 mg/kg,NCI-H1373 [18],33%
same,IC50,A-375,3.5 µM
CCN1CCC(Oc2nc(N3CCC4(CC3)CN(C(=O)/C=C/CN3CCOCC3)C4)c3cc(Cl)c(-c4c(C)ccc5[nH]ncc45)c(F)c3n2)CC1,IC50,GTPase KRas,> 10 µM
C=CC(=O)N1CC2(CCN(c3nc(NC4CCN(C)CC4)nc4c(F)c(-c5c(C)ccc6[nH]ncc56)c(Cl)cc34)CC2)C1,IC50,[2],> 10 µM
same,IC50,GTPase KRas,0.35 µM
same,IC50,NCI-H1373 [3],0.39 µM
same,IC50,[4],0.38 µM
same,IC50,A-375,2.8 µM

# From ChEMBL document CHEMBL5107997, “Discovery and biological evaluation of 1-{2,7-diazaspiro[3.5]nonan-2-yl}prop-2-en-1-one derivatives as covalent inhibitors of KRAS G12C with favorable metabolic stability and anti-tumor activity” (Bioorg Med Chem, 2022)
